Read-outs that look alike come from different tables or passages of the source.
Key:
[1] = tested on: acutely dissociated and purified rat OPCs; assay: Acute OL differentiation assay (MBP expression/cell, immunofluorescent image quantification); format: cell-based; conditions: for activation at 0.08 µM / activation at 0.4 µM / EC50 / activation at 2 µM / activation at 10 µM: Rattus norvegicus; for activation at 0.08 µM: test compound at 0.08 uM, read-out: 0.08 uM (% Quet); for activation at 0.08 µM / activation at 0.4 µM / activation at 2 µM / activation at 10 µM: sheet "All OLga data", relative to quetiapine; for EC50: average EC50 for induction of OL differentiation from independent biological replicates, eight concentrations; for hit in OL differentiation assay, MRF-TMC: ● = confirmed hit in this paper's assay
In short: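 Oligodendrocyte precursor cells were enriched from P6-P7 Sprague–Dawley rat brains by immunopanning (RAN-2 and GalC depletion, O4 selection), plated at 5000 cells/well in serum-free, mitogen-free differentiation media on PDL/laminin 96-well view plates, centrifuged at 200×g, and pre-incubated 1–2 h before test compounds were added in quadruplicate. On DIV4, cells were fixed, stained for MBP and DAPI, imaged automatically, and MBP expression per cell was quantified.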

Rat OPCs = conditions: ● = hit reported; cited from earlier work
expanded OPCs = assay: cells; conditions: for 0.1 µM (% DMSO) / 1 µM (% DMSO) / 10 µM (% DMSO): alamarBlue viability of expanded OPCs, relative to DMSO control; for 0.1 µM (% DMSO): compound at 0.1 µM; for 1 µM (% DMSO): compound at 1 µM; for 10 µM (% DMSO): compound at 10 µM; for viability at 0.1 µM / viability at 1 µM / viability at 10 µM: Rattus norvegicus, 72 h
In short: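 Expanded OPCs seeded at 10,000 cells/well in differentiation media, then exposed to NCC library compounds at 10, 1 and 0.1 µM (quadruplicate, 0.1% DMSO) for three days. Viability read as alamarBlue fluorescence (560/590 nm) after 4 h at 37 °C; tunicamycin 5 ng/ml served as toxicity control.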

[2] = in vivo models; cited from earlier work
Rat OPCs, Mouse OPCs = conditions: ● = hit reported; cited from earlier work
Mouse OPCs = conditions: ● = hit reported; cited from earlier work
transplanted hOPCs = tested on: transplanted hOPCs; set-up: method as in PMID 25716865; conditions: hypomyelinated shiverer/rag2 brain; cited from earlier work
[3] = test compound at 0.4 uM, NCC library screen, read-out: 0.4 uM (% Quet)
[4] = test compound at 2 uM, NCC library screen, read-out: 2 uM (% Quet)
[5] = test compound at 10 uM, NCC library screen, read-out: 10 uM (% Quet)
[6] = read-out: 0.1 µM (% DMSO), alamarBlue viability, NCC library compound at 0.1 µM, sheet "All Tox data"
[7] = read-out: 1 µM (% DMSO), alamarBlue viability, NCC library compound at 1 µM, sheet "All Tox data"
[8] = read-out: 10 µM (% DMSO), alamarBlue viability, NCC library compound at 10 µM, sheet "All Tox data"
[9] = 2 uM test compound, read-out: OL differentiation, 2 uM (% Quet)
[10] = 10 uM test compound, read-out: OL differentiation, 10 uM (% Quet)
[11] = read-out: 0.1 µM (% DMSO), alamarBlue viability of expanded OPCs, compound at 0.1 µM, sheet All Tox data
[12] = read-out: 1 µM (% DMSO), alamarBlue viability of expanded OPCs, compound at 1 µM, sheet All Tox data
[13] = read-out: 10 µM (% DMSO), alamarBlue viability of expanded OPCs, compound at 10 µM, sheet All Tox data
[14] = 0.4 uM test compound, read-out: OL differentiation, 0.4 uM (% Quet)

OCCN1CCN(CCCN2c3ccccc3Sc3ccc(Cl)cc32)CC1 [Perphenazine, reference compound]
activation at 0.08 µM ([1]; NCC library screen): 95.7% | activation at 0.4 µM [1, 3]: 79% | EC50 [1]: 100 nM | hit in OL differentiation assay, MRF-TMC [1]: ● | hit in OL differentiation assay, Deshmukh (Rat OPCs): ● | 0.1 µM (% DMSO) (expanded OPCs): 154.3 % DMSO | 1 µM (% DMSO) (expanded OPCs): 47.1 % DMSO | 10 µM (% DMSO) (expanded OPCs): 9.2 % DMSO

CN1CCC[C@@H]1CCO[C@](C)(c1ccccc1)c1ccc(Cl)cc1 [Clemastine]
stimulating remyelination [2]: efficacy in stimulating remyelination | promotion of OL differentiation (in words) ([1]; MBP expression versus 0.1 % DMSO negative control): could promote OL differentiation in our assay similar to benztropine | hit in OL differentiation assay, MRF-TMC [1]: ● | hit in OL differentiation assay, Deshmukh (Rat OPCs): ● | hit in OL differentiation assay, Mei (Rat OPCs, Mouse OPCs): ●

CC(C)[N+]1(C)[C@@H]2CC[C@H]1C[C@@H](OC(=O)C(CO)c1ccccc1)C2 (stereo partly shown) [Ipatropium, reference compound]
activation at 2 µM [1, 4]: 21.2% | activation at 10 µM [1, 5]: 38.6% | EC50 [1]: 8500 nM | hit in OL differentiation assay, MRF-TMC [1]: ● | hit in OL differentiation assay, Deshmukh (Rat OPCs): ● | hit in OL differentiation assay, Mei (Rat OPCs, Mouse OPCs): ● | viability at 0.1 µM (expanded OPCs; [6]): 92.6% | viability at 1 µM (expanded OPCs; [7]): 101% | viability at 10 µM (expanded OPCs; [8]): 123%

O[C@@H]1CCCC[C@H]1N1CCC(c2ccccc2)CC1 (racemic) [Vesamicol, reference compound]
activation at 2 µM [1, 9]: 80.7% | activation at 10 µM [1, 10]: 151% | EC50 [1]: 1400 nM | hit in OL differentiation assay, MRF-TMC [1]: ● | hit in OL differentiation assay, Najm (Mouse OPCs): ● | viability at 0.1 µM (expanded OPCs; [11]): 94.3% | viability at 1 µM (expanded OPCs; [12]): 120% | viability at 10 µM (expanded OPCs; [13]): 146%

CC/C(=C(\c1ccccc1)c1ccc(OCCN(C)C)cc1)c1ccccc1 [Tamoxifen, reference compound]
activation at 0.08 µM ([1]; NCC library screen): 117% | activation at 0.4 µM [1, 3]: -49.8% | hit in OL differentiation assay, MRF-TMC [1]: ● | hit in OL differentiation assay, Najm (Mouse OPCs): ● | 0.1 µM (% DMSO) (expanded OPCs): 162.2 % DMSO | 1 µM (% DMSO) (expanded OPCs): 55.1 % DMSO | 10 µM (% DMSO) (expanded OPCs): 9.5 % DMSO

CN1[C@@H]2CC[C@H]1C[C@@H](OC(c1ccccc1)c1ccccc1)C2 [Benztropine]
stimulating remyelination [2]: efficacy in stimulating remyelination | hit in OL differentiation assay, MRF-TMC [1]: ● | hit in OL differentiation assay, Deshmukh (Rat OPCs): ● | hit in OL differentiation assay, Mei (Rat OPCs, Mouse OPCs): ● | hit in OL differentiation assay, Najm (Mouse OPCs): ●

OCCN1CCN(CCCN2c3ccccc3Sc3ccc(C(F)(F)F)cc32)CC1 [Fluphenazine, reference compound]
activation at 0.08 µM ([1]; NCC library screen): 92.6% | activation at 0.4 µM [1, 3]: -2.7% | hit in OL differentiation assay, MRF-TMC [1]: ● | hit in OL differentiation assay, Deshmukh (Rat OPCs): ● | viability at 0.1 µM (expanded OPCs; [6]): 159% | viability at 1 µM (expanded OPCs; [7]): 46.8% | viability at 10 µM (expanded OPCs; [8]): 9.6%

OCCOCCN1CCN(C2=Nc3ccccc3Sc3ccccc32)CC1 [Quetiapine]
hit in OL differentiation assay, MRF-TMC [1]: ● | hit in OL differentiation assay, Mei (Rat OPCs, Mouse OPCs): ● | hit in OL differentiation assay, Najm (Mouse OPCs): ●

O=C(O[C@H]1CN2CCC1CC2)N1CCc2ccccc2[C@@H]1c1ccccc1 [solifenacin]
oligodendrocyte differentiation of transplanted hOPCs (transplanted hOPCs): promoted oligodendrocyte differentiation of transplanted hOPCs

CN1CCN(CCCN2c3ccccc3Sc3ccc(C(F)(F)F)cc32)CC1 [Trifluoperazine, reference compound]
activation at 0.4 µM [1, 14]: 155% | activation at 2 µM [1, 9]: -103% | EC50 [1]: 200 nM | hit in OL differentiation assay, MRF-TMC [1]: ● | hit in OL differentiation assay, Deshmukh (Rat OPCs): ● | viability at 0.1 µM (expanded OPCs; [11]): 116% | viability at 1 µM (expanded OPCs; [12]): 85.8% | viability at 10 µM (expanded OPCs; [13]): 11.3%

CCN(CC)CC#CCOC(=O)C(O)(c1ccccc1)C1CCCCC1 (stereo not shown) [Oxybutynin, reference compound]
activation at 2 µM [1, 4]: 91.6% | hit in OL differentiation assay, MRF-TMC [1]: ● | hit in OL differentiation assay, Deshmukh (Rat OPCs): ● | hit in OL differentiation assay, Mei (Rat OPCs, Mouse OPCs): ● | 0.1 µM (% DMSO) (expanded OPCs): 129.9 % DMSO | 1 µM (% DMSO) (expanded OPCs): 169.5 % DMSO | 10 µM (% DMSO) (expanded OPCs): 57.5 % DMSO

OCc1cc(C(O)CNCCCCCCOCCCCc2ccccc2)ccc1O (stereo not shown) [Salmeterol, reference compound]
activation at 0.4 µM [1, 3]: 55.3% | activation at 2 µM [1, 4]: -32.4% | EC50 [1]: 400 nM | hit in OL differentiation assay, MRF-TMC [1]: ● | hit in OL differentiation assay, Deshmukh (Rat OPCs): ● | viability at 0.1 µM (expanded OPCs; [6]): 115% | viability at 1 µM (expanded OPCs; [7]): 108% | viability at 10 µM (expanded OPCs; [8]): 9.3%

NC(=O)c1cccnc1 [Niacinamide]
activation at 2 µM [1, 4]: -37.7% | activation at 10 µM [1, 5]: -38.5% | viability at 0.1 µM (expanded OPCs; [6]): 90.4% | viability at 1 µM (expanded OPCs; [7]): 91% | viability at 10 µM (expanded OPCs; [8]): 80.9%

COc1cc(/C=C/c2ccc(O)cc2)cc(OC)c1 [Pterostilbene]
activation at 0.4 µM [1, 14]: -5.7% | activation at 2 µM [1, 9]: -7.7% | viability at 0.1 µM (expanded OPCs; [11]): 101% | viability at 1 µM (expanded OPCs; [12]): 62.5% | viability at 10 µM (expanded OPCs; [13]): 27.3%

COc1ccc2cc([C@H](C)C(=O)O)ccc2c1 [Naproxen]
activation at 2 µM [1, 4]: 1% | activation at 10 µM [1, 5]: -0.6% | viability at 0.1 µM (expanded OPCs; [6]): 91.1% | viability at 1 µM (expanded OPCs; [7]): 95.1% | viability at 10 µM (expanded OPCs; [8]): 94%

CNCC(O)c1ccc(O)cc1 (stereo not shown) [Synephrine]
activation at 2 µM [1, 4]: -7.3% | activation at 10 µM [1, 5]: 2.8% | viability at 0.1 µM (expanded OPCs; [6]): 85.8% | viability at 1 µM (expanded OPCs; [7]): 94.3% | viability at 10 µM (expanded OPCs; [8]): 93.4%

CC(NC(C)(C)C)C(=O)c1cccc(Cl)c1 (stereo not shown) [Bupropion]
activation at 2 µM [1, 9]: 33.6% | viability at 0.1 µM (expanded OPCs; [11]): 94.3% | viability at 1 µM (expanded OPCs; [12]): 98.9% | viability at 10 µM (expanded OPCs; [13]): 128%

O=C(c1ccc(F)cc1)C1CCN(CCn2c(=S)[nH]c3ccccc3c2=O)CC1 [Altanserin]
activation at 2 µM [1, 9]: -4% | activation at 10 µM [1, 10]: -10% | viability at 0.1 µM (expanded OPCs; [6]): 107% | viability at 1 µM (expanded OPCs; [7]): 94.1% | viability at 10 µM (expanded OPCs; [8]): 56%

COc1cc2nc(N(C)CCCNC(=O)C3CCCO3)nc(N)c2cc1OC (stereo not shown) [Alfuzosin]
activation at 2 µM [1, 9]: -11.1% | activation at 10 µM [1, 10]: -32.5% | viability at 0.1 µM (expanded OPCs; [11]): 90.1% | viability at 1 µM (expanded OPCs; [12]): 89.6% | viability at 10 µM (expanded OPCs; [13]): 86.6%

C[C@H]1O[C@@H](O[C@H]2[C@@H](O)C[C@H](O[C@H]3[C@@H](O)C[C@H](O[C@H]4CC[C@@]5(C)[C@H](CC[C@@H]6[C@@H]5C[C@@H](O)[C@]5(C)[C@@H](C7=CC(=O)OC7)CC[C@]65O)C4)O[C@@H]3C)O[C@@H]2C)C[C@H](O)[C@@H]1O [Digoxin]
activation at 2 µM [1, 4]: -10.3% | activation at 10 µM [1, 5]: 22.8% | viability at 0.1 µM (expanded OPCs; [6]): 103% | viability at 1 µM (expanded OPCs; [7]): 99.8% | viability at 10 µM (expanded OPCs; [8]): 106%

Reference: paper PMC5011342, “A high throughput drug screening assay to identify compounds that promote oligodendrocyte differentiation using acutely dissociated and purified oligodendrocyte precursor cells” (BMC Research Notes, 2016)
